Laboratory results from ChEMBL document CHEMBL6134923, “Novel Tricyclic Compounds as GSK3 Inhibitors” (ACS Med Chem Lett, 2025).

Assays:
[1] = molecular target: Glycogen synthase kinase-3 beta (Homo sapiens, UniProt P49841); test: Inhibition of N-terminal GST-tagged full-length recombinant human GSK-3beta extracted from baculovirus infected Sf9 cells using biotinylated-phosphorylated glycogen synthase incubated for 100 mins in presence of ATP by TR-FRET assay
[2] = molecular target: Glycogen synthase kinase-3 alpha (Homo sapiens, UniProt P49840); test: Inhibition of N-terminal GST-tagged full-length recombinant human GSK-3alpha extracted from baculovirus infected Sf9 cells using biotinylated-phosphorylated glycogen synthase incubated for 100 mins in presence of ATP by TR-FRET assay
Glycogen synthase kinase-3 alpha, sequence (P49840 whole entry): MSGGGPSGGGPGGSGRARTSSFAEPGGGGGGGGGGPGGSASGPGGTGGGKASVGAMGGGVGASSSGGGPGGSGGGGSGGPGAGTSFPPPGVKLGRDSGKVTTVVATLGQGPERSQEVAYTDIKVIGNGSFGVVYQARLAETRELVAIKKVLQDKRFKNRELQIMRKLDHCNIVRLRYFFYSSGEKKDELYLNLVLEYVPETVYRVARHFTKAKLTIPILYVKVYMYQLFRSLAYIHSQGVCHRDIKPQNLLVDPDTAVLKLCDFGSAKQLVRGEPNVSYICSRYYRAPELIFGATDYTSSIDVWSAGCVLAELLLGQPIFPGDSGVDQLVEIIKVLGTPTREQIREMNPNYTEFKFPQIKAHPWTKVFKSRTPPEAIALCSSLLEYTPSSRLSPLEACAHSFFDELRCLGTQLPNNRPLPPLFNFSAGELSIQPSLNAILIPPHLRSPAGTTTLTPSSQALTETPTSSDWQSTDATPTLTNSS

Glycogen synthase kinase-3 beta, sequence (P49841 whole entry): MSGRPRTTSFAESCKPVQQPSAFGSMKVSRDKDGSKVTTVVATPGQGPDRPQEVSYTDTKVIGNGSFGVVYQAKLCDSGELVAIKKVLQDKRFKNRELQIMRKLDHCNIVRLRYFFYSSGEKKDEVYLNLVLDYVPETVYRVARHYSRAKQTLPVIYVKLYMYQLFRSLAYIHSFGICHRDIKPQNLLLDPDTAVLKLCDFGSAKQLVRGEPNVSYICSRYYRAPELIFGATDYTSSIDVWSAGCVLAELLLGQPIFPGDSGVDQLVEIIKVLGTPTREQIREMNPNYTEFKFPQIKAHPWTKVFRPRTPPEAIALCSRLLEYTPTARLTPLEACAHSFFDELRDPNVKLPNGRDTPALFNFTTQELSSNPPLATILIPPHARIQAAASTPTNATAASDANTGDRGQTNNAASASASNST

| IC50 [1] | IC50 [2] | Compound |
| --- | --- | --- |
| ≤ 100 nM | ≤ 100 nM | CC[C@]1(c2cccc(OC(C)C)c2)C2=C(CC(C)(C)CC2=O)Nc2n[nH]c(C(F)(F)F)c21 |
| > 1000 nM | > 100 nM | CCC1(c2cccc(N3CC4CCC(C4)C3)c2)C2=C(CC(C)(C)CC2=O)Nc2n[nH]cc21 (configuration not stated) |
| ≤ 100 nM | ≤ 100 nM | CC[C@@]1(c2cccc(S(=O)(=O)C3CC3)c2)C2=C(CC(C)(C)CC2=O)Nc2n[nH]c(C(F)(F)F)c21 |
| > 100 nM | > 100 nM | CC[C@@]1(c2cccc(-c3cc(C)ncc3C)c2)C2=C(CC(C)(C)CC2=O)Nc2n[nH]c(C(F)(F)F)c21 |
| ≤ 100 nM | ≤ 100 nM | CC[C@@]1(c2cccc(-c3cncn3C)c2)C2=C(CC(C)(C)NC2=O)Nc2n[nH]c(C(F)(F)F)c21 |
| ≤ 100 nM | ≤ 100 nM | CC[C@@]1(c2cccc(C(F)(F)F)c2)C2=C(Nc3n[nH]cc31)[C@H](F)C(C)(C)CC2=O |
